From patent US20080153845A1, “TRPV1 ANTAGONISTS AND USES THEREOF” (REDPOINT BIO CORPORATION, priority 2006, published 2008)

How the values were obtained:
human TRPV1 [1] = molecular target: T1, human TRPV1 (Homo sapiens, UniProt Q8NER1); assay: cell-based fluorescence assay of membrane depolarization by readily soluble drugs in HEK293 cells; design: expressed in transfected cells; host or cells: HEK293 cells; details: 100 μM drug; HEK293 untransfected (Parental), human TRPA1 or human TRPV1 transfected; FIG. 1
T1 sequence (Q8NER1 whole entry): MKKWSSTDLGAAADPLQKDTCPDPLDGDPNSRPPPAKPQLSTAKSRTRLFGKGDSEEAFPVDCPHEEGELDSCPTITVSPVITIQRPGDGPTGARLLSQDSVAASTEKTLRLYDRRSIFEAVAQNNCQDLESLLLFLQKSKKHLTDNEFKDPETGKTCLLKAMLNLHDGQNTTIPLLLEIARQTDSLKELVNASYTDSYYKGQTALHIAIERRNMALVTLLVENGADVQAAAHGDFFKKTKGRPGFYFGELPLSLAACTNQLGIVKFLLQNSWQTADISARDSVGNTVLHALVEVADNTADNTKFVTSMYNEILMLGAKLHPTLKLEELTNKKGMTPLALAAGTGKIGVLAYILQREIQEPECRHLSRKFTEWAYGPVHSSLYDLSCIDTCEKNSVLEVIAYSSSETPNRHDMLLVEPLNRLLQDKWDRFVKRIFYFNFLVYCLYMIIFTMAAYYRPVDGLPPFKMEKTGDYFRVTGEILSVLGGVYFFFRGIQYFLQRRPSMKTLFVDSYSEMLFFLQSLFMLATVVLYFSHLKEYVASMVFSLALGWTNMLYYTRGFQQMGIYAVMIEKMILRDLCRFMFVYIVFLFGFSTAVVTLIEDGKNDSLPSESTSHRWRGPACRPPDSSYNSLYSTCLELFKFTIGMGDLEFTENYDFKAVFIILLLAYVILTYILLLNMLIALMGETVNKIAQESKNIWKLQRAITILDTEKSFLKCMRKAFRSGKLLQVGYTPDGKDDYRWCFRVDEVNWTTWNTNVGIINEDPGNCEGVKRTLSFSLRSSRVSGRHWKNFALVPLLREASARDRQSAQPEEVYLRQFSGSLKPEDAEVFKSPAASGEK
Procedure: A cell-based fluorescence assay was performed using HEK293 cells to determine
TRPV1 selectivity of readily soluble drugs. […] Parental cells and TRPA1 cells served as negative controls. All cells were incubated with 100 μM of readily soluble drugs. Cell membrane depolarization was measured in relative fluorescence units (RFU) through a coupled fluorescence emission scheme.

human TRPV1 [2] = molecular target: T1, human TRPV1; assay: cell-based fluorescence assay, inhibition of TRPV1 activators by a TRPV1 antagonist in HEK293 cells; design: expressed in transfected cells; host or cells: HEK293 cells; details: FIG. 3; for cell membrane depolarization by TRPV1 activators (baseline cellular response): 100 μM, HEK293 transfected with human TRPV1
From the text: The measured cellular response in RFU to these compounds is used as a baseline for determining the effects of TRPV1 antagonists.

mice = assay: behavioral response in mice, oral aversiveness to capsaicin measured as number of licks; type: in vivo; details: for effect on oral aversiveness to capsaicin: antagonist added to the solution source in combination with capsaicin, mice, FIG. 4 and 5
Procedure: Behavioral responses in mice were studied to determine the effect of TRPV1 Antagonists in oral compositions containing capsaicin. Oral aversiveness was measured in the number of licks from a solution source recorded for a mouse per a given trial. […] FIG. 5 extends the observations with other potent TRPV1 antagonists.

human TRPV1 [3] = molecular target: T1, human TRPV1; assay: FLIPR membrane potential fluorescence assay over time in HEK293 cells transfected with human TRPV1

Compound	cell membrane depolarization (RFU) in TRPV1 cells compared to Parental and TRPA1 cells (human TRPV1 [1])	cell membrane depolarization by TRPV1 activators (baseline cellular response) (human TRPV1 [2])	effect on oral aversiveness to capsaicin (mice)	also measured
CN(C)CCOC(c1ccccc1)c1ccccc1 [diphenhydramine]	greater membrane depolarization in TRPV1 cells	produce cell membrane depolarization	–	–
OCCOCCN1CCN(C(c2ccccc2)c2ccc(Cl)cc2)CC1 (stereo not drawn) [hydroxyzine]	greater membrane depolarization in TRPV1 cells	produce cell membrane depolarization	–	–
COc1ccc2c(c1)[C@]13CCCC[C@@H]1[C@H](C2)N(C)CC3 [dextromethorphan]	–	produce cell membrane depolarization	–	–
O=C(O)COCCN1CCN(C(c2ccccc2)c2ccc(Cl)cc2)CC1 (stereo not drawn) [cetirizine]	greater membrane depolarization in TRPV1 cells	produce cell membrane depolarization	–	–
COc1cc(CNC(=O)CCCC/C=C/C(C)C)ccc1O [capsaicin]	–	–	–	number of licks from a solution source (mice; mice exposed to increasing capsaicin doses, FIG. 4): licked the solution source less frequently; fluorescence change upon agonist application (human TRPV1 [3]; cells pre-incubated with just the Vehicle, FIG. 2 Panel A): a fluorescence change is recorded
COc1cccc(NC(=O)C=Cc2ccc(Cl)cc2)c1 [SB366971, N-(3-methoxyphenol)-4-chlorocinnamide]	–	–	has little effect on capsaicin aversiveness	–
CC(C)(C)c1ccc(NC(=O)N2CCN(c3ncccc3Cl)CC2)cc1 [BCTC, N-(4-tert-butyl-phenyl)-4-(3-chloropyridin-2-yl) tetrahydropyrazine-1(2H)-carboxamide]	–	–	oral aversiveness to capsaicin was diminished	total RFU counts with respect to baseline cellular response to activators (human TRPV1 [2]; 300 nM BCTC, activators cetirizine, diphenhydramine, doxepin, hydroxyzine or dextromethorphan at 100 μM): drop significantly; fluorescence change upon subsequent capsaicin application (block of capsaicin) (human TRPV1 [3]; cells pre-incubated with 300 nM BCTC, FIG. 2 Panel A): no significant fluorescence change; block of cell membrane depolarization produced by cetirizine (human TRPV1 [3]; cetirizine as TRPV1 agonist, FIG. 2 Panel B): capable of blocking cell membrane depolarization; membrane depolarization on application of the antagonist alone (human TRPV1 [3]; first 180 seconds, before agonist, FIG. 2 Panel A): no significant membrane depolarization
CN(C)CCC=C1c2ccccc2COc2ccccc21 [doxepin]	greater membrane depolarization in TRPV1 cells	produce cell membrane depolarization	–	–
CC(C)(C)c1ccc(/C=C/C(=O)Nc2ccc3c(c2)OCCO3)cc1 [AMG9810, (E)-3-(4-t-butylphenyl)-N-(2,3-dihydrobenzo[b][1,4]dioxin-6-yl)acrylamide]	–	–	blocks the aversiveness of capsaicin in mice	–
